Usually IC50 stands for the concentration that gives 50% inhibition.

SMYD3, sequence (Q9H7B4 whole entry): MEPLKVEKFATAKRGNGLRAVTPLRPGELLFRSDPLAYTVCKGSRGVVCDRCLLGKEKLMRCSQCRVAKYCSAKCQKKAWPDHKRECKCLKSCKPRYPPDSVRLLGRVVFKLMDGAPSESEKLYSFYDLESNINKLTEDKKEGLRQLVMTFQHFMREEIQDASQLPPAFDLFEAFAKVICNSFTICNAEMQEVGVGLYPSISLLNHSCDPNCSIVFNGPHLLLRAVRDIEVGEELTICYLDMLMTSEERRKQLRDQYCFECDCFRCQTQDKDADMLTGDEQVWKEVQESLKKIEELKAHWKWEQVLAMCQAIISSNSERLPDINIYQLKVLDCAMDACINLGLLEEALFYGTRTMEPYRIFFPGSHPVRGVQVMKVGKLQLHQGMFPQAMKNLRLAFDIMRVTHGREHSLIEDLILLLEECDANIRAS

One assay concerns the target SMYD3 (Homo sapiens (Human), UniProt Q9H7B4). The assay is described as follows: SMYD3 biochemical assay (SMYD3 enzyme assay on MEKK2 protein substrate, 3H-SAM scintillation proximity assay). Particulars: Table 1A; average of n = 1 to n = 50; read-out: SMYD3 Biochem IC50. The gist of the method:
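Native full-length human SMYD3, expressed in E. coli, was preincubated with compound for 30 min at room temperature in 25 mM Tris-Cl pH 8.0, 1 mM TCEP, 0.005% BSG and 0.005% Tween 20. ³H-SAM plus GST-MEKK2 then started the reaction. It was stopped with unlabeled SAM (100 uM final), and methylated MEKK2 was read by SPA.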
A general note: Scintillation proximity formats need no separation of bound from free tracer.
As to `Cc1ncc(C(=O)N[C@H]2CC[C@H](N)CC2)[nH]1` [compound 522, N-((1r,4r)-4-aminocyclohexyl)-2-methyl-1H-imidazole-5-carboxamide], the IC50 is more than 50 µM.

For `CC(NC(=O)c1nnc[nH]1)C1CCN(C(=O)[C@H](C)N)CC1` (stereo partly drawn) [compound 523, N-(1-(1-(L-alanyl)piperidin-4-yl)ethyl)-4H-1,2,4-triazole-3-carboxamide], the IC50 was more than 50 µM. On the same count and under the same terms, the figure for `NCCC(=O)N[C@H]1CC[C@H](NC(=O)c2nnc[nH]2)CC1` [compound 525, N-((1r,4r)-4-(3-aminopropanamido)cyclohexyl)-4H-1,2,4-triazole-3-carboxamide] is more than 50 µM. Same read-out and setting: in the case of `CC(NC(=O)c1cc(Cl)[nH]n1)C1CCN(C(=O)[C@H](C)N)CC1` (stereo partly drawn) [compound 527, N-(1-(1-(L-alanyl)piperidin-4-yl)ethyl)-5-chloro-1H-pyrazole-3-carboxamide] it was more than 50 µM. On the same count and under the same terms, the figure for `NCCC(=O)N[C@H]1CC[C@H](NC(=O)c2cc(Cl)[nH]n2)CC1` [compound 528, N-((1r,4r)-4-(3-aminopropanamido)cyclohexyl)-5-chloro-1H-pyrazole-3-carboxamide] is more than 50 µM; for `NCCC(=O)N[C@H]1CC[C@H](NC(=O)c2cc3cn[nH]c3cn2)CC1` [compound 529, N-((1r,4r)-4-(3-aminopropanamido)cyclohexyl)-1H-pyrazolo[3,4-c]pyridine-5-carboxamide] it is 4.45 µM; for `NCCC(=O)N[C@H]1CC[C@H](NC(=O)c2n[nH]c(=O)[nH]2)CC1` [compound 530, N-((1r,4r)-4-(3-aminopropanamido)cyclohexyl)-5-oxo-4,5-dihydro-1H-1,2,4-triazole-3-carboxamide] it is more than 50 µM. As for `N[C@H]1CC[C@H](NC(=O)c2n[nH]c(=O)[nH]2)CC1` [compound 531, N-((1r,4r)-4-aminocyclohexyl)-5-oxo-4,5-dihydro-1H-1,2,4-triazole-3-carboxamide], the IC50 was more than 50 µM.

Regarding `NCCC(=O)N[C@H]1CC[C@H](NC(=O)c2nc3ccncc3s2)CC1` [compound 532, N-((1r,4r)-4-(3-aminopropanamido)cyclohexyl)thiazolo[5,4-c]pyridine-2-carboxamide], the IC50 is more than 50 µM.

As to `N[C@H]1CC[C@H](NC(=O)c2nc3ccncc3s2)CC1` [compound 533, N-((1r,4r)-4-aminocyclohexyl)thiazolo[5,4-c]pyridine-2-carboxamide], the IC50 is more than 50 µM. For `CC(NC(=O)c1cn(CC(N)=O)nn1)C1CCN(C(=O)[C@H](C)N)CC1` (stereo partly drawn) [compound 534, N-(1-(1-(L-alanyl)piperidin-4-yl)ethyl)-1-(2-amino-2-oxoethyl)-1H-1,2,3-triazole-4-carboxamide], the IC50 is more than 50 µM. In the case of `CCc1nc(C(=O)N[C@H]2CC[C@H](N)CC2)n[nH]1` [compound 535, N-((1r,4r)-4-aminocyclohexyl)-5-ethyl-1H-1,2,4-triazole-3-carboxamide], the IC50 was more than 50 µM. Consider `CCc1nnc(C(=O)N[C@H]2CC[C@H](NC(=O)CCN)CC2)[nH]1` [compound 536, N-((1r,4r)-4-(3-aminopropanamido)cyclohexyl)-5-ethyl-4H-1,2,4-triazole-3-carboxamide], for which the IC50 is more than 50 µM.

As to `NCCC(=O)N[C@H]1CC[C@H](NC(=O)c2c[nH]cn2)CC1` [compound 537, N-((1r,4r)-4-(3-aminopropanamido)cyclohexyl)-1H-imidazole-4-carboxamide], the IC50 was more than 50 µM.

For `Cc1cc2cc(C(=O)NC(C)C3CCN(C(=O)[C@H](C)N)CC3)ccc2[nH]1` (stereo partly drawn) [compound 538, N-(1-(1-(L-alanyl)piperidin-4-yl)ethyl)-2-methyl-1H-indole-5-carboxamide], the IC50 was more than 50 µM.

With `N[C@H]1CC[C@H](C(=O)N[C@H]2CC[C@H](NC(=O)c3ncn[nH]3)CC2)CC1` [compound 539, N-((1R,4r)-4-((1r,4R)-4-aminocyclohexane-1-carboxamido)cyclohexyl)-1H-1,2,4-triazole-5-carboxamide], the IC50 was more than 50 µM. Same read-out and setting: in the case of `NCCCC(=O)N[C@H]1CC[C@H](NC(=O)c2nnc[nH]2)CC1` [compound 540, N-((1r,4r)-4-(4-aminobutanamido)cyclohexyl)-4H-1,2,4-triazole-3-carboxamide] it was more than 50 µM; in that of `N[C@H]1CC[C@H](NC(=O)c2n[nH]c(Cl)n2)CC1` [compound 541, N-((1r,4r)-4-aminocyclohexyl)-5-chloro-1H-1,2,4-triazole-3-carboxamide], more than 50 µM; in that of `Cc1[nH]cnc1C(=O)N[C@H]1CC[C@H](N)CC1` [compound 542, N-((1r,4r)-4-aminocyclohexyl)-5-methyl-1H-imidazole-4-carboxamide], more than 50 µM. The same measure, in the same setting: in the case of `Cc1nnc(C(=O)N[C@H]2CC[C@H](NC(=O)CCN)CC2)[nH]1` [compound 543, N-((1r,4r)-4-(3-aminopropanamido)cyclohexyl)-5-methyl-4H-1,2,4-triazole-3-carboxamide] it was more than 50 µM; in that of `Cn1cnc(C(=O)N[C@H]2CC[C@H](N)CC2)n1` [compound 544, N-((1r,4r)-4-aminocyclohexyl)-1-methyl-1H-1,2,4-triazole-3-carboxamide], more than 50 µM; in that of `N[C@H]1CC[C@H](NC(=O)c2cc(Cl)[nH]n2)CC1` [compound 545, N-((1r,4r)-4-aminocyclohexyl)-5-chloro-1H-pyrazole-3-carboxamide], more than 50 µM. Same read-out and setting: the figure for `CC(NC(=O)c1n[nH]c(=O)[nH]1)C1CCN(C(=O)[C@H](C)N)CC1` (stereo partly drawn) [compound 546, N-(1-(1-(L-alanyl)piperidin-4-yl)ethyl)-5-oxo-4,5-dihydro-1H-1,2,4-triazole-3-carboxamide] is 9.76 µM; for `O=C(NC1CCN(C(=O)CC2CCNCC2)CC1)c1nnc[nH]1` [compound 547, N-(1-(2-(piperidin-4-yl)acetyl)piperidin-4-yl)-4H-1,2,4-triazole-3-carboxamide] it is more than 50 µM; for `N[C@H]1CC[C@H](NC(=O)c2nc(I)n[nH]2)CC1` [compound 548, N-((1r,4r)-4-aminocyclohexyl)-3-iodo-1H-1,2,4-triazole-5-carboxamide] it is more than 50 µM. Take `Cc1n[nH]c(C(=O)NC(C)C2CCN(C(=O)[C@H](C)N)CC2)n1` (stereo partly drawn) [compound 549, N-(1-(1-(L-alanyl)piperidin-4-yl)ethyl)-3-methyl-1H-1,2,4-triazole-5-carboxamide]: the half-inhibitory concentration (IC50) was more than 50 µM. Consider `Cc1nc(C(=O)N[C@H]2CC[C@H](N)CC2)n[nH]1` [compound 550, N-((1r,4r)-4-aminocyclohexyl)-5-methyl-1H-1,2,4-triazole-3-carboxamide], for which the IC50 is 14.7 µM. In the case of `CC(NC(=O)c1nc2ccncc2s1)C1CCN(C(=O)[C@H](C)N)CC1` (stereo partly drawn) [compound 551, N-(1-(1-(L-alanyl)piperidin-4-yl)ethyl)thiazolo[5,4-c]pyridine-2-carboxamide], the IC50 was more than 50 µM. Take `CCc1cnc(C(=O)NC(C)C2CCN(C(=O)[C@H](C)N)CC2)s1` (stereo partly drawn) [compound 552, N-(1-(1-(L-alanyl)piperidin-4-yl)ethyl)-5-ethylthiazole-2-carboxamide]: the IC50 was found to be 6.44 µM. Same read-out and setting: in the case of `CCc1cnc(C(=O)N[C@H]2CC[C@H](NC(=O)CCN)CC2)s1` [compound 553, N-((1r,4r)-4-(3-aminopropanamido)cyclohexyl)-5-ethylthiazole-2-carboxamide] it was 25.6 µM; in that of `CCc1cnc(C(=O)N[C@H]2CC[C@H](N)CC2)s1` [compound 554, N-((1r,4r)-4-aminocyclohexyl)-5-ethylthiazole-2-carboxamide], more than 50 µM.

Staying with this assay, now noted: read-out: SMYD3 Biochem IC50.
In the case of `NCCC(=O)N[C@H]1CC[C@H](NC(=O)c2ncccc2O)CC1` [compound 512, N-((1r,4r)-4-(3-aminopropanamido)cyclohexyl)-3-hydroxypicolinamide], the IC50 is more than 50 µM.

As for `CC(NC(=O)c1cncc(O)c1)C1CCN(C(=O)[C@H](C)N)CC1` (stereo partly drawn) [compound 513, N-(1-(1-(L-alanyl)piperidin-4-yl)ethyl)-5-hydroxynicotinamide], the IC50 was more than 50 µM. Regarding `NCCC(=O)N[C@H]1CC[C@H](NC(=O)c2cncc(O)c2)CC1` [compound 514, N-((1r,4r)-4-(3-aminopropanamido)cyclohexyl)-5-hydroxynicotinamide], the IC50 was more than 50 µM.

Turning to `N[C@H]1CC[C@H](NC(=O)c2cncc(O)c2)CC1` [compound 515, N-((1r,4r)-4-aminocyclohexyl)-5-hydroxynicotinamide], the IC50 is more than 50 µM. As to `NCCC(=O)N[C@H]1CC[C@H](NC(=O)c2cn(CC(N)=O)nn2)CC1` [compound 516, 1-(2-amino-2-oxoethyl)-N-((1r,4r)-4-(3-aminopropanamido)cyclohexyl)-1H-1,2,3-triazole-4-carboxamide], the IC50 is more than 50 µM.

As for `NC1CCC(NC(=O)c2c[nH]cn2)CC1` (centres unmarked) [compound 517, N-(4-aminocyclohexyl)-1H-imidazole-4-carboxamide], the half-inhibitory concentration (IC50) was more than 50 µM.

`NCCC(=O)NC1CCC(NC(=O)c2ncc[nH]2)CC1` (centres unmarked) [compound 518, N-(4-(3-aminopropanamido)cyclohexyl)-1H-imidazole-2-carboxamide]: the half-inhibitory concentration (IC50) was more than 50 µM. Still for that read-out and setting: the figure for `Cc1cc2cc(C(=O)N[C@H]3CC[C@H](NC(=O)CCN)CC3)ccc2[nH]1` [compound 519, N-((1r,4r)-4-(3-aminopropanamido)cyclohexyl)-2-methyl-1H-indole-5-carboxamide] is more than 50 µM. With `Cc1cc2cc(C(=O)N[C@H]3CC[C@H](N)CC3)ccc2[nH]1` [compound 520, N-((1r,4r)-4-aminocyclohexyl)-2-methyl-1H-indole-5-carboxamide], the IC50 was more than 50 µM. Same read-out and setting: the figure for `N[C@H]1CC[C@H](NC(=O)c2c[nH]cn2)CC1` [compound 521, N-((1r,4r)-4-aminocyclohexyl)-1H-imidazole-4-carboxamide] is more than 50 µM.

These data come from patent US10266526B2, “Substituted 1,2,3-triazoles as SMYD inhibitors for treating cancer” (EPIZYME, INC., priority 2014, dated 2019).
